Data reported in patent US4510136A (priority 1983, dated 1985).

Key:
Uromyces phaseoli = test: Bean rust control on sprayed bean seedlings (Example 85); assay type: in vivo
Description: This suspension was sprayed to the point of run-off on bean seedlings. The following day, the plants were inoculated with a spore suspension of the fungus Uromyces phaseoli, causal agent of bean rust, and incubated in a saturated humidity chamber at 20° for 24 hours and then in a greenhouse for 7 days. Disease ratings were then made. Treated plants from successful treatments had few or no rust pustules in contrast to untreated plants which were covered with rust pustules.

5 Phytophthora species = assay type: cell-based; settings: 200.0 ppm in V-8 agar, 22° C., 6 days
[1] = test system: Puccinia recondita var. tritici; test: Wheat leaf rust control on sprayed wheat seedlings (Example 79); assay type: in vivo; settings: Puccinia recondita, 168 h; for pest or weed control at 100 ppm: 100 ppm spray, day before inoculation
Outline: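 Disease was scored as leaf rust pustules 7 days after a 24 h, 20° saturated-humidity incubation of seedlings inoculated with P. recondita var. tritici spores. Inoculation followed by one day a run-off spray of 100 ppm compound in water containing 6% acetone and 250 ppm TREM 014.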

Erysiphe cichoracearum = test: Cucumber powdery mildew control on sprayed cucumber seedlings (Example 80); assay type: in vivo; settings: Golovinomyces cichoracearum, 168 h; for pest or weed control at 100 ppm: 100 ppm spray, day before inoculation
Erysiphe graminis = test: Barley powdery mildew control on sprayed barley seedlings (Example 81); assay type: in vivo; settings: Blumeria graminis, 168 h; for pest or weed control at 100 ppm: 100 ppm spray, day before inoculation
Description: The compounds of the previous examples were again dissolved in acetone in an amount equal to 6% of the final volume and then suspended at a concentration of 100 ppm in purified water containing 250 ppm of the surfactant TREM 014 (polyhydric alcohol esters). These suspensions were sprayed to the point of run-off on barley seedlings. The following day, the plants were inoculated with a spore suspension of the fungus Erysiphe graminis, causal agent of barley powdery mildew, and incubated in growth room for 7 days. Disease ratings were then made. Treated plants from successful treatments had little or no powdery mildew in contrast to untreated plants which were covered with powdery mildew.

Venturia inaequalis = test: Apple scab control on sprayed apple seedlings (Example 82); assay type: in vivo; settings: Venturia inaequalis; for pest or weed control at 100 ppm: 100 ppm spray, day before inoculation
Helminthosporium maydis = test: Southern corn leaf blight control on sprayed corn seedlings (Example 83); assay type: in vivo; settings: Bipolaris maydis, 192 h, 100 ppm spray, day before inoculation
Outline: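 Corn seedlings were sprayed to run-off with 100 ppm suspensions (6% acetone, 250 ppm TREM 014) and spore-inoculated the following day. Disease and growth reduction were rated after 24 h saturated humidity at 20° plus 7 days in a growth room.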

Cercospora arachidicola = test: Peanut early leafspot control on sprayed peanut seedlings (Example 84); assay type: in vivo; settings: Mycosphaerella arachidis, 360 h, 100 ppm spray, day before inoculation; read-out: % Control Peanut Easly Leafspot
Monilinia fructicola = test: Stone fruit brown rot control on dipped canned peach halves (Example 86); settings: 120 h, 100 ppm dip, percent growth inhibition of colonies after five days
Text: Several compounds of the previous examples were again dissolved in acetone in an amount equal to 5% of the final volume and then suspended at a concentration of 100 ppm in purified water containing 700 ppm of the surfactant TREM 014 (polyhydric alcohol esters). Canned peach halves were dipped in this suspension for three minutes and then placed to air dry in sterile containers. Upon drying, the peach halves were inoculated with two pieces of Monilinia fructicola mycelium, causal agent of stone fruit brown rot, and incubated in the sterile containers for five days. At that time the radii of the colonies' growth were measured on each peach. […] Percent disease control (percent growth inhibition of colonies on treated peaches as compared to that of colonies on untreated peaches) is expressed in the table below.

Rhizoctonia solani = test: Rice sheath blight control on sprayed rice seedlings (Example 87); assay type: in vivo; settings: Rhizoctonia solani, 168 h, 100 ppm spray, day before inoculation
Outline: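 Disease ratings followed 7 days' growth-room incubation of seedlings given a bran/R. solani mycelium inoculum. Inoculation took place one day after spraying to run-off. The spray was a 100 ppm compound suspension in water containing 6% acetone and 250 ppm TREM 014.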

Pyricularia oryzae = test: whole plant or invertebrate; assay type: in vivo; settings: Pyricularia oryzae, 168 h, read-out: % Control of Rice Blast, 100 ppm spray, day before inoculation
Phytophthora infestans = test: whole plant or invertebrate; assay type: in vivo; settings: Phytophthora infestans, in Solanum lycopersicum, 168 h, read-out: % Control of Tomato Late Blight, 100 ppm spray, day before inoculation
Pythium aphanadermatum [2] = test: Pythium control on cotton, seed coating (Example 91); assay type: in vivo; settings: 168 h, 2 gm/kg seed
Text: Several compounds of the previous examples were incorporated into a proprietary formulation and used to coat cotton seeds at a rate of 2 gm/kg seed. After being thoroughly coated, the seeds were allowed to air dry at room temperature. The cotton seeds were then planted into soil amended with the fungus Pythium aphanadermatum, sand, and corn meal at a rate sufficient to kill most untreated seeds. The seeds were held at room temperature for 1 week, after which time disease ratings were made.

cucumber seedlings = test: Phytotoxicity on cucumber seedlings (Example 80); assay type: in vivo; design: key: G = growth reduction; H = hormonal effects; settings: 100 ppm spray
Outline: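 Disease was rated 7 days after inoculation with powdery mildew spores, which followed one day after a run-off spray of 100 ppm compound in water with 6% acetone and 250 ppm TREM 014. Growth reduction or hormonal effects on the seedlings were recorded as phytotoxicity.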

bean seedlings = test: Phytotoxicity on bean seedlings (Example 85); assay type: in vivo; design: key: G = growth reduction; H = hormonal effects; settings: 80 ppm spray
apple seedlings [3] = test: Phytotoxicity on apple seedlings (Example 82); assay type: in vivo; design: key: G = growth reduction; H = hormonal effects; settings: 100 ppm spray
Description: (§1) These suspensions were sprayed to the point of run-off on apple seedlings. The following day, the plants were inoculated with a spore suspension of the fungus Venturia inaequalis, causal agent of apple scab, and incubated in a saturated humidity chamber at 20° for 24 hours and then in a growth room for an additional 10-12 days. Treated plants from successful treatments had fewer apple scab lesions when compared to untreated plants which were covered with scab lesions. Phytotoxicity expressed as growth reduction was observed on some of the plants in association with disease control.

apple seedlings [4] = test: Phytotoxicity on apple seedlings (Example 82); assay type: in vivo; design: key: G = growth reduction; C = chlorosis; B = burn
Description: as §1

Pythium aphanadermatum [5] = test: Pythium control on corn, seed coating (Example 92); assay type: in vivo; settings: 504 h, 2 gm/kg seed
Description: Several compounds of the previous examples were incorporated into a proprietary formulation and used to coat corn seeds at a rate of 2 gm/kg seed. After being thoroughly coated, the seeds were allowed to air dry at room temperature. The seeds were then planted into soil amended with a mixture of the fungus Pythium aphanadermatum, sand, and corn meal at a rate sufficient to kill most untreated seeds. The seeds were held at 49° F. for 2 weeks and then at 70° F. for 1 additional week. After this time disease ratings were made.

Row | SMILES | No. of 5 Phytophthora species controlled in vitro (5 Phytophthora species) | pest or weed control at 100 ppm [1] [%] | pest or weed control at 100 ppm (Erysiphe cichoracearum) [%] | pest or weed control at 100 ppm (Venturia inaequalis) [%] | pest or weed control at 100 ppm (Helminthosporium maydis) [%] | pest or weed control at 100 ppm (Cercospora arachidicola) [%] | inhibition of growth at 100 µg/mL (Monilinia fructicola) [%] | pest or weed control at 100 ppm (Rhizoctonia solani) [%] | pest or weed control at 100 ppm (Pyricularia oryzae) [%] | pest or weed control at 100 ppm (Phytophthora infestans) [%] | pest or weed control at 2 g/kg seed (Pythium aphanadermatum [2]) [%] | Phytotoxicity on cucumber (cucumber seedlings) | % Control Bean Rust (Uromyces phaseoli; applied at 16 ppm) [%] | also measured
1 | C[Si](C)(Cn1cncn1)c1ccc(-c2ccccc2)cc1 [(1,1'-Biphenyl-4-yl)dimethyl(1H--1,2,4-triazol-1-ylmethyl)si] [(1,1'-Biphenyl-4-yl)dimethyl(1H-1,2,4-triazol-1-ylmethyl)silane] | 0 |  |  |  |  |  |  |  |  |  |  |  |  | % Control Bean Rust (Uromyces phaseoli; 80 ppm spray, day before inoculation): 100%
2 | C[Si](C)(Cn1cncn1)c1ccc(Cl)cc1Cl [(2,4-Dichlorophenyl)dimethyl(1H-1,2,4-triazol-1-ylmethyl)silane] | 0 | 90 | 100 | 100 | 90 | 100 | 100 | 0 | 0 | 0 | 0 | H |  | pest or weed control at 100 ppm (Erysiphe graminis): 100%; Phytotoxicity on bean (bean seedlings): G
3 | C[Si](Cn1cncn1)(c1ccccc1)c1ccc(Cl)cc1 (stereo not shown) [(4-Chlorophenyl)methyl(phenyl)(1H-1,2,4-triazol-1-ylmethyl)silane] | 0 | 100 | 100 | 100 | 90 | 100 | 70 | 90 | 100 | 0 |  | G | 98 | 
4 | C[Si](Cn1cncn1)(c1ccccc1)c1ccc(F)cc1 (stereo not shown) [(4-Fluorophenyl)methyl(phenyl)(1H-1,2,4-triazol-1-ylmethyl)silane] | 0 | 90 | 100 | 100 | 90 | 100 | 90 | 80 | 0 | 0 |  |  | 100 | 
5 | CCCC[Si](C)(Cn1cncn1)c1ccc(Cl)cc1Cl (stereo not shown) [Butyl(2,4-dichlorophenyl)methyl(1H-1,2,4-triazol-1-ylmethyl)silane] | 0 | 100 | 100 | 100 | 100 | 100 | 98 | 50 | 0 | 0 |  | G |  | Phytotoxicity on apple (apple seedlings [3]): G
6 | C[Si](C)(Cn1cncn1)c1ccc(F)cc1 [Dimethyl(4-fluorophenyl)(1H-1,2,4-triazol-1-ylmethyl)silane] |  | 100 | 100 | 80 | 90 | 50 |  | 0 | 0 | 0 |  | G |  | Phytotoxicity on apple (apple seedlings [4]; 100 ppm spray): C
7 | CCCCCCCCCCCC[Si](C)(C)Cn1cncn1 [Dodecyl(dimethyl)(1H-1,2,4-triazol-1-ylmethyl)silane] |  |  |  |  | 0 |  |  |  |  |  |  |  |  | pest or weed control at 200 ppm ([1]; applied at 200 ppm): 100%; pest or weed control at 400 ppm (Erysiphe cichoracearum; applied at 400 ppm): 60%; pest or weed control at 200 ppm (Erysiphe graminis; applied at 200 ppm): 100%; pest or weed control at 400 ppm (Venturia inaequalis; applied at 400 ppm): 40%; Phytotoxicity on apple (apple seedlings [4]; applied at 400 ppm): B
8 | C[Si](Cn1cncn1)(c1ccc(Cl)cc1)c1ccc(Cl)cc1 [bis(4-Chlorophenyl)methyl(1H,-1,2,4-triazol-1-ylmethyl)silane] | 0 | 90 | 100 | 100 | 80 | 100 | 95 | 0 | 90 | 0 | 0 |  |  | pest or weed control at 100 ppm (Erysiphe graminis): 100%; Phytotoxicity on bean (bean seedlings): G
9 | C[Si](Cn1cncn1)(c1ccc(F)cc1)c1ccc(F)cc1 [bis(4-Fluorophenyl)methyl(1H,-1,2,4-triazol-1-ylmethyl)silane] | 0 | 0 | 100 | 100 | 100 | 100 | 100 | 80 | 100 | 0 | 0 | G | 98 | pest or weed control at 2 g/kg seed (Pythium aphanadermatum [5]): 0%
